Data reported in patent US20210008161A1, “METHODS AND COMPOSITIONS FOR IMPROVED HOMOLOGY DIRECTED REPAIR” (CRISPR THERAPEUTICS AG, priority 2019, published 2021).

Key:
[1] = test system: HEK293 T cells; assay: TIDE analysis of DSB repair at CFTR gene locus; format: cell-based, human
Procedure: The effect of Nu7441 treatment on HDR was also evaluated at the CFTR gene locus in HEK293 T cells. To do so cells were electroporated with RNP comprising Cas9 and a gRNA targeting the CFTR gene locus (SEQ ID NO: 18; sgRNA target sequence identified by SEQ ID NO: 19). 2×10^5 cells were edited with 1 μM Cas9 and 1.5 μM gRNA. The cells were transfected with a ssODN donor (SEQ ID NO: 42). Cells were edited with 100 μM ssODN. The ssODN contains homology arms spanning both sides of the DSB induced by the Cas9-guide and is designed to include 3 additional base pairs (GCA) into the CFTR gene to aid detection of HDR. Cells were also treated with 5 μM Nu7441. Gene correction was assessed by TIDE analysis. TIDE analysis uses a pair of PCR reactions and standard capillary sequencing runs to identify mutations induced at the site of a DSB (see e.g., Brinkman (2014) Nucleic Acids Res 42:e168). The type of mutation induced at the DSB was indicative of the pathway used to repair the DSB. Formation of an indel comprising either an insertion or a deletion of bases was considered due to NHEJ repair; a deletion of 2-3 base pairs was considered due to MMEJ repair; while an insertion of 3 base pairs was considered due to HDR repair. Shown in FIGS. 4A-4B are mutations introduced at the DSB for cells treated with Nu7441 (FIG. 4B) compared to a DMSO negative control (FIG. 4A). […] This reduction in NHEJ repair in the presence of Nu7441 was evaluated with an additional ssODN donor (SEQ ID NO: 41).

[2] = test system: CD34-expressing LT-HSPCs; assay: Indel formation at HBB locus by TIDE analysis; format: cell-based, human
Procedure: Editing efficiency at the HBB locus was evaluated by measuring indel formation by TIDE analysis. […] This group had 1.7-fold reduction in INDEL frequency relative to cells treated with RNP+AAV,

[3] = test system: CD34-expressing LT-HSPCs derived from human patients with sickle cell disease; assay: Erythrocyte functionality: cell-surface markers and enucleation by flow cytometry; format: cell-based; conditions: day 18 post editing
Procedure: The ability of edited cells to differentiate to functional erythrocytes was assessed by determining expression of erythrocyte-associated cell surface markers and enucleation using flow cytometry on day 18 post editing.
Briefly, 4×10^5 cells were obtained, and half were stained for erythrocyte cell-surface markers and half were used for detection of enucleation. For staining cell-surface markers, the cells were incubated in PBS containing 1% human serum albumin (PBS-A) and an antibody cocktail of anti-CD233 (BRIC6-Band3)-FITC, anti-CD71-PE, anti-CD235a(GlyA)-PE/Cy7, and anti-CD49d (a4)-VioBlue. For detection of enucleation, 2 drops of NucRed nuclear staining reagent was added to 1 mL PBS-A, and 100 μL was added to plated cells. Following incubation, both cell samples were labeled with Sytox Blue solution (1:1000 dilution in PBS-A) for live/dead analysis. Samples were then assessed by flow cytometry.

[4] = test system: patient-derived PBMCs; assay: Hemoglobin expression by HPLC in edited patient-derived PBMCs; format: cell-based, human; conditions: FIG. 36
Procedure: Briefly, on day 18 post-editing, 1×10^6 cells were harvested, centrifuged, and washed with PBS. The cells were prepared for HPLC analysis. Hemoglobin variants were quantified in cell samples using reverse-phase HPLC chromatography and gradient elution. […] Thus, high levels of HDR achieved with i53 contribute to normalization of hemoglobin expression products.
Hemoglobin expression was measured by HPLC analysis for edited PBMCs as described above.

[5] = test system: human LT-HSPCs administered to cKit mice; assay: Indel formation at HBB locus in mouse bone marrow by TIDE analysis; format: in vivo; conditions: 16 weeks post engraftment
Procedure: (§1) NHEJ editing of the HBB locus was also evaluated in mouse bone marrow collected at 16 weeks post engraftment. Indel formation at the site of Cas9/gRNA cutting was evaluated by TIDE analysis in bone marrow samples and compared to indel formation of LT-HSPCs prior to administration.
as §1, with “administration. Regardless of the method used to edit the LT-HSPCs, indel formation was similar at 16 weeks post-engraftment to the level present prior to administration (FIG. 27).” for “administration.”

[6] = test system: wild-type CD34-expressing LT-HSPCs; assay: HDR and INDEL frequency at HBB locus with AAV.323 donor by NGS; format: cell-based, human
Description: The AAV-encoded homology donor used for correction is referred to as “AAV.323” and is identified by sequence in Table 8.

[7] = test system: hTERT RPE-1 cells; assay: HDR insertion of AAV-delivered GFP donor into AAVS1 locus (GFP fluorescence); format: cell-based, human; conditions: AAV (DJ serotype) GFP donor and mRNA encoding i53, over AAV alone, FIG. 7
Procedure: RPE1 cells were lipofected with RNP comprised of Cas9 protein and gRNA targeting the AAVS1 locus (target sequence shown in SEQ ID NO: 3; spacer sequence shown in SEQ ID NO: 4). Cells were edited with 1 μg Cas9 and 1 μg gRNA. Cells were infected with AAV containing homology donor DNA encoding GFP (DJ serotype) as well as mRNA encoding i53 (mRNA ORF shown in SEQ ID NO: 69). […] HDR efficiency was determined by measuring the level of GFP fluorescence in the cells following gene-editing.

[8] = either ssODN donor (SEQ ID NO: 41 or 42), FIG. 5
[9] = compared to mock EP control cells

Molecule | HDR repair (+3 base pair insertion) at the DSB ([1]; 5 μM Nu7441, ssODN SEQ ID NO: 42, FIG. 4) | indel formation (NHEJ repair) ([1]; 5 μM Nu7441, ssODN SEQ ID NO: 42, vs DMSO negative control, FIG. 4) | HDR repair [1, 8] | indel formation due to NHEJ repair [1, 8] | risk of indel formation within the target gene locus ([2]; CD34+ HSCs contacted with 53BP1 polypeptide inhibitor, summary statement) | level of indel formation ([2]; RNP+AAV in the presence of i53, FIG. 11) | cell population having enucleation ([3]; comparable to mock EP control cells) | cell population CD71−GlyA+ erythrocytes ([3]; similar to mock EP control cells) | expression of HbA [4, 9] | expression of HbS [4, 9] | ratio of HbS to HbA, PBMCs vs CD34-expressing LT-HSPCs ([4]; edited in the presence of i53) | level of indel formation in bone marrow ([5]; Example 5, FIG. 20) | level of indel formation in bone marrow ([5]; Example 7, FIG. 27) | fold increase in HDR efficiency for incorporation of the AAV.323 gene-edit ([6]; 1 μg i53 mRNA, day 2 post-editing, compared to R02+AAV.323 only, FIG. 30A) | frequency of INDELs at the R02 cut site ([6]; i53 vs R02+AAV.323 only, combination vs i53 only, FIG. 30B) | HDR efficiency [7]
O=c1cc(N2CCOCC2)oc2c(-c3cccc4c3sc3ccccc34)cccc12 [Nu7441] | much higher levels | dramatically reduced | increase | decreased levels |  |  |  |  |  |  |  |  |  |  |  | 
i53: polypeptide inhibitor of 53BP1 (SEQ ID NO: 70), introduced as an mRNA-encoded protein (ORF SEQ ID NO: 69) |  |  |  |  | less than 30% | lowest | > 30% | > 30% | increased | significant reduction | comparable | lowest | lowest | approximately 1.5 fold | decreased | increase
